Data reported in patent US10980754B2, “Anti-fungal compounds” (SAINT LOUIS UNIVERSITY, priority 2016, dated 2021).
≈ marks a conversion by molar mass, not a printed value. Entries after “also recorded” stand apart in the source; their conditions may differ.

Legend:
[1] = system: Wild-type KN99α; test: Screening of 1-Hydroxy-1,8-naphthyridin-2(1H)-one (HNO) compounds for growth inhibition; format: cell-based, C. neoformans; conditions: Cryptococcus neoformans; growth inhibited >80%
Method: FIG. 1. Results from screening 8 napthyridinone derivatives. Wild-type KN99α at a starting density of 0.0005 was treated with the compounds at 4 μM, 15 μM, and 60 μM in nutrient-limiting media (YNB, pH 7)+1% DMSO at 35° C. for 48 hours. Bars represent the average cell density of at least three replicates as percent of untreated cells.
Eight compounds in the 1-Hydroxy-1,8-naphthyridin-2(1H)-one (HNO) chemical family were also tested. Three compounds, #149, #153 and #154, inhibited growth of C. neoformans >80% with MICs of ˜10 μM, ˜4 μM and ˜20 μM respectively.

[2] = system: C. neoformans var grubii, KN99; test: Inhibition of C. neoformans growth, limiting dilution assay (MIC); format: cell-based; conditions: for MIC80: KN99α, minimal concentration inhibiting 80% of growth relative to vehicle
Method: Strains and media. All inhibition assays were performed with C. neoformans var grubii, KN99 (serotype A, MATα; kindly provided by Jennifer Lodge). Two clinical strains of C. neoformans var grubii, serotype A, were kindly provided by Tamara Doering and Andre Spec. […] Each assay was done in triplicate and all values are the average of two or more independent assays. The data are presented as the average cell density as a percent of DMSO-only treated cells. […] However, these conditions are unlike conditions encountered by C. neoformans in mammalian infections, where nutrients are limited, and the pH and temperature are higher than in YPD media. The cryptococcal stress response to low glucose and high pH and temperature may alter its susceptibility to the inhibitors. It is also possible that the enzymes targeted by the inhibitors may render the cell temperature sensitive when inhibited. To better mimic growth in mammals, growth was tested without shaking in nutrient-limited media at 35° C. […] However, as the nutrient-limited media and higher temperature is more similar to mammalian cell growth conditions, these conditions were used for all further assays. […] All values were measured at least two times in independent experiments and the average MIC is reported.

[3] = Cytotoxicity in hepatoma cells (MTS); conditions: human, HepDES19 cells
Method: (§1) HepDES19 cells (1.0×10^4 cells per well) were seeded in 96-well plates and incubated in DMEM with 10% fetal bovine serum (FBS) plus 1% penicillin and streptomycin, 1% nonessential amino acids, and 1% glutamine. The compounds were diluted in the medium at concentrations ranging from 0.78 to 100 μM plus 1% DMSO and added to the cells 48 hours after plating, with each concentration tested in triplicate. Cells were incubated with the compound for 72 hours and cytotoxicity was measured using a mitochondrial metabolic assay with MTS (Promega). The data were transformed to log[inhibitor] and fit to a 4-variable slope curve using GraphPad Prism (v6, www.graphpad.com).
(§2) Three days later, the MTS reagent was added for 90 minutes prior to terminating the incubation period and reading the OD480.

[4] = system: HepDES19 cells; test: Cytotoxicity in hepatoma cells (MTS); conditions: 72 hours, MTS
Method: as §1, §2

[5] = Cryptococcus neoformans, YNB-02+1% DMSO, 35° C., 48 hours
[6] = CC50, HepDES19 cells, 72 hours, MTS

Structure (SMILES) | MIC80 [2, 5] | CC50 at 72 h [3, 6] | also measured
O=c1cc(-c2ccccc2)c2cccnc2n1O [Compound 154] | – | – | MIC [1]: ~20 µM (≈ 4.76 µg/mL)
O=c1c(O)ccc(-c2ccc(-c3ccccc3)cc2)cc1O [Compound 264, 4-([1,1′-biphenyl]-4-yl)-2,7-dihydroxycyclohepta-2,4,6-trien-1-one] | 35 µM (≈ 10.2 µg/mL) | 28 µM | –
Cc1ccc(C(=O)Nc2cccccc2=O)cc1 [Compound 60] | 50 µM (≈ 12 µg/mL) | > 100 µM | –
O=C(Oc1cccccc1=O)c1ccccc1Cl [Compound 282] | 36 µM (≈ 9.38 µg/mL) | – | CC50 [4]: 96.5 µM
Cc1cc(O)c(=O)c(O)cc1-c1ccc([N+](=O)[O-])cc1 [Compound 112] | 49 µM (≈ 13.4 µg/mL) | 74 µM | –
Cc1cc(O)c(=O)c(O)cc1C(=O)c1ccc(-c2ccccc2)cc1 [Compound 118] | 18 µM (≈ 5.98 µg/mL) | 17.5 µM | –
Cc1ccccc1C(=O)Oc1cccccc1=O [Compound 281] | 50 µM (≈ 12 µg/mL) | 100 µM | –
O=c1c(O)ccc(-c2ccccc2)cc1O [Compound 262, 2,7-dihydroxy-4-phenylcyclohepta-2,4,6-trien-1-one] | 18 µM (≈ 3.86 µg/mL) | 96 µM | –
O=c1cc(Cc2ccc(Br)cc2)c2cccnc2n1O [Compound 149] | – | – | MIC [1]: ~10 µM (≈ 3.31 µg/mL)
COCc1cc(O)c(=O)c(O)c(C(=O)OC)c1C(=O)OC [Compound 108] | 50 µM (≈ 14.9 µg/mL) | 90.5 µM | –
CC(C)c1ccc(O)c(=O)cc1 [Compound 48, γ-thujaplicin] | 8 µM (≈ 1.31 µg/mL) | 45 µM | –
Cc1cc(O)c(=O)c(O)cc1C(=O)c1ccco1 [Compound 309, 4-(furan-2-carbonyl)-2,7-dihydroxy-5-methylcyclohepta-2,4,6-trien-1-one] | 24 µM (≈ 5.91 µg/mL) | 35 µM | –
O=c1cccccc1Cl [Compound 57, 2-chlorotropone] | – | – | MIC80 ([2]; YNB-02+1% DMSO, 35° C., 48 hours): 50 µM (≈ 7.03 µg/mL)
O=C(Nc1ccc(O)c(=O)cc1)c1ccccc1 [Compound 52] | 50 µM (≈ 12.1 µg/mL) | > 100 µM | –
Cc1cc(O)c(=O)c(O)cc1C(=O)c1ccccc1O [Compound 311, 4-(2-hydroxybenzoyl)-2,7-dihydroxy-5-methylcyclohepta-2,4,6-trien-1-one] | 15 µM (≈ 4.08 µg/mL) | 20 µM | –
Cc1cc(O)c(=O)c(O)cc1C(=O)C1CCCCC1 [Compound 120] | 12 µM (≈ 3.15 µg/mL) | 21.5 µM | –
COc1cc(C)c(C(=O)c2ccccc2)c(C(=O)c2ccccc2)c(O)c1=O [Compound 317, (7-hydroxy-5-methoxy-3-methyl-6-oxocyclohepta-2,4,7-triene-1,2-diyl) bis (phenyl methanone)] | 50 µM (≈ 18.7 µg/mL) | > 100 µM | activity against C. neoformans (in words) ([2]; MIC assay): little activity; also recorded: no activity
O=C(Oc1cccccc1=O)c1ccc([N+](=O)[O-])cc1 [Compound 51, tropolone p-nitrobenzoate] | 24 µM (≈ 6.51 µg/mL) | > 100 µM | –
Cc1cc(O)c(=O)c(O)cc1-c1ccccc1 [Compound 113] | 24 µM (≈ 5.48 µg/mL) | 37.5 µM | –
Cc1cc(O)c(=O)c(O)cc1C(=O)C1CC1 [Compound 310, 4-(cyclopropanecarbonyl)-2,7-dihydroxy-5-methylcyclohepta-2,4,6-trien-1-one] | 11 µM (≈ 2.42 µg/mL) | 35 µM | –
Cc1cc(O)c(=O)c(O)cc1-c1ccc(Cl)cc1 [Compound 144] | 50 µM (≈ 13.1 µg/mL) | – | –
O=c1cccccc1O [Compound 53, Tropolone] | 24 µM (≈ 2.93 µg/mL) | 100 µM | MIC [2, 5]: 24 µM (≈ 2.93 µg/mL)
CC(=O)c1cc(O)c(=O)c(O)cc1C [Compound 110] | 50 µM (≈ 9.71 µg/mL) | 19 µM | MIC [2, 5]: ≥ 50 µM
Cc1ccc(O)c(=O)c(O)c1 [Compound 210] | 15 µM (≈ 2.28 µg/mL) | 71 µM | MIC [2, 5]: ≤ 15 µM
O=C(Sc1cccccc1=O)c1ccccc1 [Compound 364] | – | – | MIC ([2]; Cryptococcus neoformans, Table 3, similar methods to Table 2): 0.2 µM (≈ 0.0485 µg/mL); CC50 at 72 h ([3]; CC50, Table 3, similar methods to Table 2): 46 µM
